For orientation: solubility means the dissolved amount per volume that the medium holds. Broadly, the inhibition is how much of the control response was suppressed.

Experimental findings from patent publication US20110172217A1, “RING-FUSED MORPHOLINE DERIVATIVE HAVING PI3K-INHIBITING ACTIVITY” (Shionogi & Co., Ltd., priority 2008, published 2011) are described below.

Bounds are passed on as bounds.

Data set [1] is described as follows: Solubility test in artificial intestinal juice pH 6.8. Format: physicochemical. The following applies: kinetic from dmso stock, artificial intestinal juice pH 6.8, 1% DMSO, 25° C. The method, then: The solubility of a compound was determined under a condition in which 1% DMSO was added. 10 mmol/L compound solution was prepared using DMSO, and then 6 μL of the compound solution was added to 594 μL of artificial intestinal juice in pH 6.8 (to 250 mL of 0.2 mol/L potassium dihydrogen phosphate reagent solution was added 118 mL of 0.2 mol/L NaOH reagent solution and water to provide a final volume of 1000 mL). After standing at 25° C. for 16 hours, the mixed solution was filtered with suction. The filtrate was diluted twice with methanol/water (1/1), and then a concentration in the filtration was measured with HPLC or LC/MS/MS by the absolute calibration method.

For data set [2], the target named is T1, human ether-a-go-go related gene (hERG) channel (Homo sapiens, UniProt Q12809).
T1 construct: expressed in transfected cells; host or cells: HEK293
T1 sequence (Q12809 whole entry): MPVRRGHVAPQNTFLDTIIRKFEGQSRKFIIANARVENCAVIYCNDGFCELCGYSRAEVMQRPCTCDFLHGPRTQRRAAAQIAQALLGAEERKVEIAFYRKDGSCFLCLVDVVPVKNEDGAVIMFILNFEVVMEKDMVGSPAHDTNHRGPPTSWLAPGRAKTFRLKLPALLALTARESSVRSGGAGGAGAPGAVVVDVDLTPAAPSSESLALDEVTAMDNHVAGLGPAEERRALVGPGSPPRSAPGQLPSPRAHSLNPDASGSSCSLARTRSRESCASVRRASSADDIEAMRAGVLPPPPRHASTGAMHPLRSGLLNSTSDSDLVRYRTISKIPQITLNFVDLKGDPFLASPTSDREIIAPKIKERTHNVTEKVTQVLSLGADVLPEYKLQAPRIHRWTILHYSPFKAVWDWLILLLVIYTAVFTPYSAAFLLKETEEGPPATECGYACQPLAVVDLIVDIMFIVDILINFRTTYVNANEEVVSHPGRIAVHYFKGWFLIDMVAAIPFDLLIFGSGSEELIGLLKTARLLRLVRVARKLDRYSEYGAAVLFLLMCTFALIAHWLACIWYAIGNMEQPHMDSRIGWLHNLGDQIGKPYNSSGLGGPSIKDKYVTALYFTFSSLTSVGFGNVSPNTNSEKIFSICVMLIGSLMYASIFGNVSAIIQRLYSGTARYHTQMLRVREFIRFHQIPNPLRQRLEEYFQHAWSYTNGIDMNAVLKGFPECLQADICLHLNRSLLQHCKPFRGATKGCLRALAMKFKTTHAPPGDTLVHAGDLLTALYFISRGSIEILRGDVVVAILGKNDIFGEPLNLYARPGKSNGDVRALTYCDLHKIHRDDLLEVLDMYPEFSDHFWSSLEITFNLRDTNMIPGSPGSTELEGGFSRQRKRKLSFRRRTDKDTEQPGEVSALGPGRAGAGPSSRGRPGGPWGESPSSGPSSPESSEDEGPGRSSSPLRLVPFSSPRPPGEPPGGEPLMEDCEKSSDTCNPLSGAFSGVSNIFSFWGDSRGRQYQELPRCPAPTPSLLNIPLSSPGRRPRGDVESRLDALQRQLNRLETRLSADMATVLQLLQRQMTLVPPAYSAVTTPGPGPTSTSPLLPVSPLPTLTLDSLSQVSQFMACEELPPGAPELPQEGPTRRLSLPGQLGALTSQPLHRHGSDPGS
The data set is described as follows: hERG test, whole-cell patch-clamp, IKr. Format: cell-based. The following applies: 1 μmol/L compound; HEK293 cell expressing hERG. The text has this:
For the purpose of risk evaluation of QT interval extension of electrocardiogram, the activity on delayed rectification K^+ current (IKr), which plays an important role in a cardiac ventricle repolarization process, was examined using the HEK293 cell that was made to express human ether-a-go-go related gene (hERG) channel.
Using an automatic patch-clamp system (PatchXpress 7000A, Axon Instruments Inc.), by a whole-cell patch-clamp method, after the cell was maintained at a membrane potential of −80 mV, IKr induced upon applying depolarizing stimulation of +50 mV for 2 seconds and further applying repolarizing stimulation of −50 mV for 2 seconds was recorded. After generated electric current became stable, a test substance dissolved at an intended concentration in extracellular fluid (137 mmol/L NaCl, 4 mmol/L KCl, 1.8 mmol/L CaCl2.2H2O, 1 mmol/L MgCl2.6H2O, 10 mmol/L glucose, 10 mmol/L HEPES (4-(2-hydroxyethyl)-1-piperazineethanesulfonic acid), pH=7.4) was applied to the cell for 10 minutes under room temperature condition. From the obtained IKr, the absolute value of the maximum tail current was measured using analysis software (DataXpress ver. 1, Molecular Devices Corporation) and the value of the electric current in a maintained membrane potential as baseline. Moreover, an inhibition ratio for the maximum tail current prior to the application of the test substance was calculated and then compared with a group of media-application (0.1% dimethylsulfoxide solution) to evaluate influence of the test substance on IKr.
For orientation: hERG is a cardiac potassium channel; its block is linked to QT prolongation.

Data set [3] relates to Salmonella typhimurium TA98 line, TA100 line. Briefly: Fat Test (mutagenicity in Salmonella typhimurium). The class given is cell-based. Further details: key: When the mutagenicity is negative, the compound is shown as (−); When positive, the compound is shown as (+). Conditions: TA98 and TA100 lines, non-metabolism-activation and metabolism-activation conditions. The method, then:
20 μL of Salmonella enterica subsp. typhimurium (Salmonella typhimurium TA98 line, TA100 line) cryopreserved was inoculated to 10 mL of liquid nutrient medium (2.5% Oxoid nutrient broth No. 2) and then precultured at 37° C. for 10 hours with shaking. Regarding TA98 line, after 9 mL of a bacterial suspension was centrifuged (2000×g, 10 minutes) to remove the culture solution, the bacteria was suspended in 9 mL of Micro F buffer solution (K2HPO4: 3.5 g/L, KH2PO4: 1 g/L, (NH4)2SO4: 1 g/L, tri-sodium citric acid dihydrate: 0.25 g/L, MgSO4.7H2O: 0.1 g/L), and then added to 110 mL of Exposure media (Micro F buffer solution containing biotin: 8 μg/mL, histidine: 0.2 μg/mL, glucose: 8 mg/mL). Regarding TA 100 line, 120 mL of Exposure media was added to 3.16 mL of the bacterial suspension to prepare a test bacterial suspension. 12 μL of a solution of a test substance in DMSO (diluted eight times in a common ratio of 2 from the maximum dose of 50 mg/mL); 12 μL of DMSO as a negative control; 50 μg/mL 4-nitroquinoline-1-oxide solution in DMSO for TA98 line or 0.25 μg/mL 2-(2-furyl)-3-(5-nitro-2-furyl)acrylamide solution in DMSO as a positive control for TA 100 line in the case of a non-metabolism-activation condition; 12 μL of 40 μg/mL 2-aminoanthracene solution in DMSO for TA98 line or 20 μg/mL of 2-aminoanthracene solution in DMSO for TA100 line in the case of a metabolism-activation condition; were each mixed with 588 μL of the test bacterial suspension (in the case of a metabolism activation condition, a mixed solution of 498 μL of the test bacterial suspension and 90 μL S9 mix) and then cultured at 37° C. at 90 minutes with shaking. 460 μL of the bacterial suspension to which a test substance was exposed was mixed with 2300 μL of Indicator media (a Micro F buffer solution containing 8 μg/mL biotin, 0.2 μg/mL histidine, 8 mg/mL glucose, and 37.5 μg/mL bromocresol purple). […] Thus, in 48 wells per dose, the number of the bacteria-proliferation wells in which the color changed to yellow was counted, compared with a group of negative controls, and then evaluated. […]

The next data set concerns the target PI-3 kinase γ (Homo sapiens, UniProt P48736). Briefly: PI3Kγ inhibitory activity, PI3-kinase HTRF assay (inhibition ratio). Format: biochemical. The following applies: 0.5 h, compound at 50 μmol/L. The method, boiled down: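 Human PI3Kγ was preincubated 10 min with compound and PIP2 substrate, then reacted 30 min at room temperature with ATP (40 μmol/L in the added solution); EDTA/biotin-PIP3 quenched. HTRF 665/620 nm ratio read after 18 h, normalized to no-compound (100%) and no-enzyme (0%) controls, gave % inhibition at 50 or 10 μmol/L compound.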
(In general: TR-FRET usually uses a lanthanide donor and a delayed reading to cut background.)

Sequence of PI-3 kinase γ (P48736 whole entry): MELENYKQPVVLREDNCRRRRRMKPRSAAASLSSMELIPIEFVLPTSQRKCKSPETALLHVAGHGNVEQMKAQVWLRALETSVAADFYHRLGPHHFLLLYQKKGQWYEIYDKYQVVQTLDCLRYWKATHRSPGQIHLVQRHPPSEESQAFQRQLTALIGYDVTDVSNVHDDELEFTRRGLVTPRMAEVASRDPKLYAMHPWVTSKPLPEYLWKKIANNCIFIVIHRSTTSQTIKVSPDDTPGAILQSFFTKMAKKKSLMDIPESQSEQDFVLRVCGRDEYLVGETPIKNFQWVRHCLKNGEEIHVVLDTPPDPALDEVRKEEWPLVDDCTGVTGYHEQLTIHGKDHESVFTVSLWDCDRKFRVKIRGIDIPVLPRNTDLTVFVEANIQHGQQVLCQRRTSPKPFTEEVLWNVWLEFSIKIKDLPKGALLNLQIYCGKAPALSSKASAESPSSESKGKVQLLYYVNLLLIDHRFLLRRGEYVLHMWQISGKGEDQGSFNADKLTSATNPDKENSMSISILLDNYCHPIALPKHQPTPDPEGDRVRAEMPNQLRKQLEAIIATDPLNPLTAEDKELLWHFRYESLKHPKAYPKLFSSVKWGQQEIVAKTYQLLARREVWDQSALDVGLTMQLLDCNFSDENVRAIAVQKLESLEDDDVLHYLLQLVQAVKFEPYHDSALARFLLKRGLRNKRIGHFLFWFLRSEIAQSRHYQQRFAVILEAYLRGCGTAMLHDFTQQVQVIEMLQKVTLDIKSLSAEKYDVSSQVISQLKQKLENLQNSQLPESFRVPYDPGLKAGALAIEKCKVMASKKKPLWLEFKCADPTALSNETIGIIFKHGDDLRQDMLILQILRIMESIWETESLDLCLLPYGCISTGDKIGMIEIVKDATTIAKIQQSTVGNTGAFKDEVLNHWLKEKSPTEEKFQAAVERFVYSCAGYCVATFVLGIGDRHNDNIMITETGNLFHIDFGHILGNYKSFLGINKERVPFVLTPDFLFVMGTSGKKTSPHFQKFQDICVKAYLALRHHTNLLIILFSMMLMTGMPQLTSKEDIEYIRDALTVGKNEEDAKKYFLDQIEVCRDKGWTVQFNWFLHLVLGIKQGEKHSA

In the case of `O=C(O)c1cccc(Nc2cnc3c(c2)OCCN3C(=O)Nc2ccccc2)c1` [Compound I-138], the solubility at 16 h in data set [1] was greater than 50 µM. In data set [2], the “hERG inhibition ratio for the maximum tail current (IKr)” value was 11.1%. The mutagenicity entry in data set [3] is on record as “(−)”.

For `CC1SC(N2CCOc3cccnc32)=NC1=O` (stereo not drawn) [Compound I-1], in data set [1], the solubility at 16 h was greater than 50 µM. Besides, the mutagenicity entry in data set [3] is reported as “(−)”. In addition, the inhibition at 50 µM at PI-3 kinase γ was 87%.
